{"source": "paper PMC7894426", "about": "“Influence of verapamil on the pharmacokinetics of rotundic acid in rats and its potential mechanism” (Pharmaceutical Biology, 2021)", "key": {"CYP3A4": {"molecular_target": "T1, CYP3A4 (Homo sapiens, UniProt P08684)", "T1 construct": "purchased Research Institute for Liver Disease (Shanghai) Co., Ltd", "T1 sequence (P08684 whole entry)": "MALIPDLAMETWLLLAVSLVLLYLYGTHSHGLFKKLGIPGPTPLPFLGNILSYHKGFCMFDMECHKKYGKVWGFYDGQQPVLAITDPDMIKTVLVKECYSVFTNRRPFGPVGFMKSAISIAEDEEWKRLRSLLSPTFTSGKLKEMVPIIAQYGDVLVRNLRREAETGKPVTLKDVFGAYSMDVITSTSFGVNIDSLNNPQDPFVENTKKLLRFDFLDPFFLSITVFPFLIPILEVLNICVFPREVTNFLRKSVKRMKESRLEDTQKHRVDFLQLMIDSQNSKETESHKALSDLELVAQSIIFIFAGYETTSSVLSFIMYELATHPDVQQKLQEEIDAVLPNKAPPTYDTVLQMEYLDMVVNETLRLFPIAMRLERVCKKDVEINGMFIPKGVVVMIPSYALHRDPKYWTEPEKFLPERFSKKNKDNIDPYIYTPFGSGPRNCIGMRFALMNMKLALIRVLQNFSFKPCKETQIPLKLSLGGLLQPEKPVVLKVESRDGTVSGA", "assay": "Metabolic depletion of RA by rhCYP3A4", "assay_type": "in vitro ADME", "procedure": "The metabolic stability of RA was evaluated against five rhCYPs (1A2, 2C8, 2C9, 2D6 and 3A4). Incubation was taken place in 0.1 M sodium phosphate buffer (pH 7.4) containing 5 mM MgCl2, 1 mM NADPH, and 25 pM rhCYP enzyme protein at 37 °C in a total volume of 1 mL. After pre-incubated for 5 min, the reactions were started by the addition of RA methanol solution (final concentration of 2 µM). Aliquots of 50 µL incubation solution were collected from the reaction at 0, 5, 10, 20 and 30 min, and quenched with 50 µL ice-cold methanol (containing 0.5% formic acid) and 100 µL ice-cold acetonitrile containing IS (10 ng/mL). The heat-inactivated rhCYP3A4 were used as negative controls. All reactions were conducted in triplicate, followed by LC-MS/MS analysis. Results presented in percentage of drug remaining in incubation starting at 100% at time zero."}, "P-gp": {"test_system": "P-gp", "assay": "Bidirectional transport across Caco-2 cell monolayer", "assay_type": "in vitro ADME, human", "conditions": "human, pH 7.4, with verapamil 50 µM, Caco-2, 25 µM RA, + 50 µM verapamil", "procedure": "(§1) The qualified monolayers were used for transport studies. […] Each experiment was carried out in triplicate."}, "[1]": {"assay": "Bidirectional transport across Caco-2 cell monolayer", "assay_type": "in vitro ADME, human", "conditions": "human, pH 7.4, Caco-2, 25 µM RA, without verapamil", "procedure": "as §1"}, "[2]": {"conditions": "10 min, read-out: RE (efflux ratio)"}, "[3]": {"conditions": "20 min, read-out: RE (efflux ratio)"}, "[4]": {"conditions": "40 min, read-out: RE (efflux ratio)"}, "[5]": {"conditions": "60 min, read-out: RE (efflux ratio)"}}, "data": [{"smiles": "C[C@@H]1CC[C@]2(C(=O)O)CC[C@]3(C)C(=CC[C@@H]4[C@@]5(C)CC[C@H](O)[C@@](C)(CO)[C@@H]5CC[C@]43C)[C@@H]2[C@]1(C)O", "note": "[RA, Rotundic acid]", "values": [{"measurement": "degradation in negative control", "setting": "CYP3A4; heat-inactivated rhCYP3A4, RA 2 µM", "value": "No obvious degradation"}, {"measurement": "RA converted", "setting": "CYP3A4; rhCYP3A4 25 pM, RA 2 µM, 30 min", "value": 88.2, "unit": "%"}, {"measurement": "Papp A→B at 10 min, 25 µM", "setting": "P-gp; 10 min", "value": "1.07 ± 0.212", "unit": "×10⁻⁶ cm/s"}, {"measurement": "Papp B→A at 10 min, 25 µM", "setting": "P-gp; 10 min", "value": "2.73 ± 0.348", "unit": "×10⁻⁶ cm/s"}, {"measurement": "efflux ratio at 10 min, 25 µM", "setting": "P-gp; [2]", "value": 2.55}, {"measurement": "Papp A→B at 20 min, 25 µM", "setting": "P-gp; 20 min", "value": "2.45 ± 0.707", "unit": "×10⁻⁶ cm/s"}, {"measurement": "Papp B→A at 20 min, 25 µM", "setting": "P-gp; 20 min", "value": "5.32 ± 0.306", "unit": "×10⁻⁶ cm/s"}, {"measurement": "efflux ratio at 20 min, 25 µM", "setting": "P-gp; [3]", "value": 2.17}, {"measurement": "Papp A→B at 40 min, 25 µM", "setting": "P-gp; 40 min", "value": "4.69 ± 0.945", "unit": "×10⁻⁶ cm/s"}, {"measurement": "Papp B→A at 40 min, 25 µM", "setting": "P-gp; 40 min", "value": "5.68 ± 0.683", "unit": "×10⁻⁶ cm/s"}, {"measurement": "efflux ratio at 40 min, 25 µM", "setting": "P-gp; [4]", "value": 1.21}, {"measurement": "Papp A→B at 60 min, 25 µM", "setting": "P-gp; 60 min", "value": "4.71 ± 0.524", "unit": "×10⁻⁶ cm/s"}, {"measurement": "Papp B→A at 60 min, 25 µM", "setting": "P-gp; 60 min", "value": "5.29 ± 0.438", "unit": "×10⁻⁶ cm/s"}, {"measurement": "efflux ratio at 60 min, 25 µM", "setting": "P-gp; [5]", "value": 1.12}, {"measurement": "efflux ratio at 25 µM", "setting": "[1]; 10–60 min, read-out: Papp (BL→AP) relative to Papp (AP→BL)", "value": 2}, {"measurement": "Papp A→B at 10 min, 25 µM", "setting": "[1]; 10 min", "value": "0.468 ± 0.0625", "unit": "×10⁻⁶ cm/s"}, {"measurement": "Papp B→A at 10 min, 25 µM", "setting": "[1]; 10 min", "value": "3.25 ± 0.35", "unit": "×10⁻⁶ cm/s"}, {"measurement": "efflux ratio at 10 min, 25 µM", "setting": "[1]; [2]", "value": 6.93}, {"measurement": "Papp A→B at 20 min, 25 µM", "setting": "[1]; 20 min", "value": "0.776 ± 0.128", "unit": "×10⁻⁶ cm/s"}, {"measurement": "Papp B→A at 20 min, 25 µM", "setting": "[1]; 20 min", "value": "5.45 ± 0.806", "unit": "×10⁻⁶ cm/s"}, {"measurement": "efflux ratio at 20 min, 25 µM", "setting": "[1]; [3]", "value": 7.02}, {"measurement": "Papp A→B at 40 min, 25 µM", "setting": "[1]; 40 min", "value": "2.8 ± 0.467", "unit": "×10⁻⁶ cm/s"}, {"measurement": "Papp B→A at 40 min, 25 µM", "setting": "[1]; 40 min", "value": "7.13 ± 0.36", "unit": "×10⁻⁶ cm/s"}, {"measurement": "efflux ratio at 40 min, 25 µM", "setting": "[1]; [4]", "value": 2.55}, {"measurement": "Papp A→B at 60 min, 25 µM", "setting": "[1]; 60 min", "value": "2.84 ± 0.441", "unit": "×10⁻⁶ cm/s"}, {"measurement": "Papp B→A at 60 min, 25 µM", "setting": "[1]; 60 min", "value": "6.56 ± 0.941", "unit": "×10⁻⁶ cm/s"}, {"measurement": "efflux ratio at 60 min, 25 µM", "setting": "[1]; [5]", "value": 2.31}]}]}
